# Laboratory results taken from article PMC9194936, “Preclinical Activity and Pharmacokinetic/Pharmacodynamic Relationship for a Series of Novel Benzenesulfonamide Perforin Inhibitors” (ACS Pharmacology & Translational Science, 2022).
# Marks after values point to notes of the source that are not given here.
# Assays:
# [1] = One-compartment pharmacokinetic model simulations; design: species or system mouse
# Experimental: For determination of plasma concentrations of 1, C57BL/6 mice were treated with a single dose of 1 at four different dose levels (160, 120, 80, and 10 mg/kg) and blood samples were collected at multiple timepoints after dosing. Overall, the pharmacokinetics followed a dose-dependent relationship that was close to linear (Figure 3A). […] To confirm the accuracy of the simulations, C57BL/6 mice were treated intraperitoneally with 80, 120, or 160 mg/kg dose of 1 and the resulting plasma concentrations were evaluated at multiple time points within a 24 h period after one (0 h), two (0, 18 h) or three (0, 9 h, 18 h) doses.
# Given the high concentrations required, there is potential for saturation of plasma protein binding to occur, where small dose increments could cause large increases in unbound concentrations.[35]
# Test samples were diluted up to 100-fold in blank plasma as necessary and quantitated against a calibration curve of known analyte concentrations ranging from 3 nM to 30 μM in an appropriate matrix and quality controls at 0.03, 0.3, 3, and 30 μM. Pharmacokinetic parameters were evaluated using noncompartmental analysis and pharmacokinetic simulations using one-compartment analysis on Phoenix WinNonlin version 6.2 (Certara, Princeton, NJ). Multiple-dose simulations were generated from parameters derived from single-dose simulations.
# [2] = design: method as in PMID 28582670; AUC: concentration or dose not given beside the values; conditions: mouse plasma; cited from earlier work
# [3] = Splenocyte cellularity and tolerability in the bone marrow transfer assay; format: in vivo; conditions: all dose levels (100, 75 and 50% of MTD), qd x 4
# Experimental: For the determination of splenic cell counts, mouse spleens were harvested and the cells dispersed in media by gentle teasing and then centrifuged at 500g. Cell pellets were resuspended in media and total spleen cell counts were performed manually using a standard hemocytometer and light microscopy. […] Peripheral blood cell counts and spleen white blood cell counts were determined on a Beckman Coulter Ac.T diff hematology analyzer.
# [4] = Bodyweight, spleen and blood cellularity in unmanipulated naive mice; format: in vivo, mouse
# Text: Splenic atrophy may occur as a direct treatment-related effect or indirectly subsequent to bodyweight loss.[32] Spleen size does normally vary so is not a reliable indicator of splenic dysfunction;[33] however, severe atrophy can prevent the normal function of the spleen and indicate systemic immunotoxicity.[34] Given that reduced splenic cellularity had not been noted in other in vivo mouse disease models using 1,[14],[15] we further investigated the impact of 1 on mouse spleen using extended dosing strategies on unmanipulated naïve mice and assessing changes in bodyweight, splenocyte, and blood cell counts and leukocyte frequencies in the spleen. The mice were treated with either 100 or 150 mg/kg of 1 given by intraperitoneal injection twice daily for up to 7 days.
# For the determination of splenic cell counts, mouse spleens were harvested and the cells dispersed in media by gentle teasing and then centrifuged at 500g. Cell pellets were resuspended in media and total spleen cell counts were performed manually using a standard hemocytometer and light microscopy. Lymphocyte subsets were quantified by flow cytometry using the following antibody reagents: BV605 rat anti-mouse CD3 clone 17A2 (#564009, BD Biosciences); BV786 rat anti-mouse CD4 clone RM4–5 (#563727, BD Biosciences); BV711 rat anti-mouse CD8a clone 53-6.7 (#100748, BioLegend); PE-Cy7 mouse anti-mouse NK1.1 clone PK136 mouse (#552878, BD Biosciences); APC rat anti-mouse CD19 clone 1D3 (#550992, BD Biosciences). Peripheral blood cell counts and spleen white blood cell counts were determined on a Beckman Coulter Ac.T diff hematology analyzer.
# [5] = Plasma protein binding by equilibrium dialysis; format: in vitro ADME, mouse
# Experimental: The plasma protein binding of the compounds was determined by equilibrium dialysis (12–14 kDa cutoff membrane). […] The dialysis unit was covered with an adhesive sealing film to prevent evaporation of the contents and placed in an incubator (Innova-42, New Brunswick Scientific) maintained at 37 °C with gentle mixing (80 rpm) for 6 h. Next, a 10 μL sample was aspirated from the plasma side and mixed with 90 μL of fresh PBS, whereas a 90 μL sample from the buffer side was removed and combined with 10 μL of drug-free plasma to ensure uniform matrix composition. Ice-cold acetonitrile (300 μL; Merck Millipore, Burlington, MA) containing internal standard (a BZS analogue of similar chemical structure) was added to each sample to precipitate protein and was vortexed for 2 min and centrifuged for 5 min at 13 000 rpm. The supernatant was diluted with 0.01% formic acid in ultrapure water (Milli-Q) (1:1) and quantitated by liquid chromatography–tandem mass spectrometry (LC-MS/MS). Each compound was tested in triplicate alongside control compounds known to have low (e.g., lidocaine) and high (e.g., amitriptyline) plasma protein binding. For media binding studies, the same assay was used, but RPMI with 0.1% BSA was used in place of CD1 mouse plasma.
smiles,measurement,setting,value
"CN1Cc2cc(-c3ccc(-c4cncc(NS(=O)(=O)c5ccccc5[N+](=O)[O-])c4)s3)ccc2C1=O [Compound 1, N-{5-[5-(2-methyl-1-oxo-2,3-dihydro-1H-isoindol-5-yl)-2-thienyl]-3-pyridinyl}-2-nitrobenzenesulfonamide]",duration that plasma concentration achieved 350 μM,[1]; 80 mg/kg three-dose schedule,14.9 h
same,duration that plasma concentration achieved 350 μM,[1]; two doses of 120 mg/kg,12.0 h
same,duration that plasma concentration achieved 350 μM,[1]; two doses of 160 mg/kg,13.4 h
same,AUC,[2],415 µM·h
same,Cmax,[2],105 µM
same,reductions in splenocyte number,[3],only minor reductions
same,tolerability,[3],well tolerated
same,platelets,"[4]; 100 mg/kg i.p. bid ×7, n = 2",1041.5 ± 0.3 ^b ×10^9/L
same,red blood cell,"[4]; 100 mg/kg i.p. bid ×7, n = 2",9.9 ± 0.3 ^b ×10^12/L
same,white blood cell,"[4]; 100 mg/kg i.p. bid ×7, n = 2",6.1 ± 2.0 ^b ×10^9/L
same,% change in bodyweight,"[4]; 100 mg/kg i.p. bid ×7, n = 6",–5 ± 2%
same,spleen: % CD3+CD4+,"[4]; 100 mg/kg i.p. bid ×7, n = 6",7.9 ± 3.3%
same,spleen: % CD3+CD8+,"[4]; 100 mg/kg i.p. bid ×7, n = 6",9.1 ± 2.6%
same,spleen: % CD19+,"[4]; 100 mg/kg i.p. bid ×7, n = 6",45.4 ± 10.1%
same,spleen: % NK1.1+,"[4]; 100 mg/kg i.p. bid ×7, n = 6",2.3 ± 0.6%
same,spleen: total cell count,"[4]; 100 mg/kg i.p. bid ×7, n = 6",0.39 ± 0.08 ×10^8
same,% change in bodyweight,"[4]; 150 mg/kg i.p. bid ×3, n = 3",–5.1 ± 5.9%
same,platelets,"[4]; 150 mg/kg i.p. bid ×3, n = 3",1163 ± 149 ×10^9/L
same,red blood cell,"[4]; 150 mg/kg i.p. bid ×3, n = 3",9.5 ± 0.9 ×10^12/L
same,spleen: % CD3+CD4+,"[4]; 150 mg/kg i.p. bid ×3, n = 3",5.6 ± 3.8%
same,spleen: % CD3+CD8+,"[4]; 150 mg/kg i.p. bid ×3, n = 3",10.6 ± 3.4%
same,spleen: % CD19+,"[4]; 150 mg/kg i.p. bid ×3, n = 3",41.4 ± 5.3%
same,spleen: % NK1.1+,"[4]; 150 mg/kg i.p. bid ×3, n = 3",5.0 ± 0.7%
same,spleen: total cell count,"[4]; 150 mg/kg i.p. bid ×3, n = 3",0.41 ± 0.46 ×10^8
same,white blood cell,"[4]; 150 mg/kg i.p. bid ×3, n = 3",6.0 ± 0.4 ×10^9/L
same,"weight loss, change in spleen or blood cell counts, reduction in splenic T, B or NK cells vs vehicle",[4]; 100 or 150 mg/kg i.p. twice daily for up to 7 days,"Neither dosing schedule resulted in weight loss, change in spleen or blood cell counts or any reduction"
same,fraction unbound at 6 h,"[5]; CD1, mouse, pH 7.4, without saturation of plasma protein binding (99.8% protein-bound), read-out: free fraction in plasma",0.002
same,total plasma concentration required for unbound IC90 at 6 h,"[5]; CD1, mouse, pooled mouse plasma, pH 7.4, at a free fraction of 0.002, read-out: total plasma concentrations required to achieve unbound plasma concentrations equivalent to the in vitro unbound IC90",~350 µM
same,"fraction unbound at 6 h, 10 μM","[5]; CD1, pH 7.4, mouse plasma, 10 μM, equilibrium dialysis",0.002
same,"fraction unbound at 6 h, 10 μM","[5]; CD1, pooled mouse plasma, pH 7.4, concentration 10 μM, mouse plasma",0.002
same,"fraction unbound at 6 h, 100 μM","[5]; CD1, pooled mouse plasma, pH 7.4, concentration 100 μM, mouse plasma",0.0006
same,"fraction unbound at 6 h, 500 μM","[5]; CD1, pooled mouse plasma, pH 7.4, concentration 500 μM, mouse plasma",0.0019
same,"fraction unbound at 6 h, 1000 μM","[5]; CD1, pooled mouse plasma, pH 7.4, concentration 1000 μM, mouse plasma",0.0038
same,increase in free drug concentrations,[5]; between 500 and 1000 μM,4 fold
same,unbound concentration,"[5]; concentration 10 μM, mouse plasma",0.02 µM
same,unbound concentration,"[5]; concentration 100 μM, mouse plasma",0.06 µM
same,unbound concentration,"[5]; concentration 500 μM, mouse plasma",0.95 µM
same,unbound concentration,"[5]; concentration 1000 μM, mouse plasma",3.8 µM
